Assay results reported in PubChem BioAssay (NCI).
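Where inhibition never reached the appropriate level, the endpoint shown equals the highest concentration tested. Otherwise, values were interpolated linearly from a five-concentration, 48-hour dose response in 96-well plates. TGI: concentration producing complete growth inhibition.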

Experiments:
Assay in all cases: NCI anticancer screen, dose series, 48 h
UO-31 renal = tested on: UO-31 renal
MDA-MB-435 = tested on: MDA-MB-435
SK-MEL-2 melanoma = tested on: SK-MEL-2 melanoma
OVCAR-5 ovarian = tested on: OVCAR-5 ovarian
A549 NSCLC = tested on: A549 NSCLC
M14 melanoma = tested on: M14 melanoma
U251 CNS = tested on: U251 CNS
LOX IMVI melanoma = tested on: LOX IMVI melanoma
EKVX NSCLC = tested on: EKVX NSCLC
OVCAR-4 ovarian = tested on: OVCAR-4 ovarian
IGROV1 ovarian = tested on: IGROV1 ovarian
UACC-257 melanoma = tested on: UACC-257 melanoma
MDA-MB-231 breast = tested on: MDA-MB-231 breast
SN12C renal = tested on: SN12C renal
RXF 393 renal = tested on: RXF 393 renal
ACHN renal = tested on: ACHN renal
A498 renal = tested on: A498 renal
UACC-62 melanoma = tested on: UACC-62 melanoma
SNB-75 CNS = tested on: SNB-75 CNS
SK-OV-3 ovarian = tested on: SK-OV-3 ovarian
DU-145 prostate = tested on: DU-145 prostate
CAKI-1 renal = tested on: CAKI-1 renal
HCT-116 colon = tested on: HCT-116 colon
SW-620 colon = tested on: SW-620 colon
SF-539 CNS = tested on: SF-539 CNS
OVCAR-8 ovarian = tested on: OVCAR-8 ovarian
NCI-H226 lung = tested on: NCI-H226 lung
NCI/ADR-RES ovarian = tested on: NCI/ADR-RES ovarian
OVCAR-3 ovarian = tested on: OVCAR-3 ovarian
MDA-N = tested on: MDA-N
MALME-3M melanoma = tested on: MALME-3M melanoma
COLO 205 colon = tested on: COLO 205 colon
BT-549 breast = tested on: BT-549 breast
786-0 renal = tested on: 786-0 renal
NCI-H522 lung = tested on: NCI-H522 lung
RPMI-8226 leukemia = tested on: RPMI-8226 leukemia
SK-MEL-28 melanoma = tested on: SK-MEL-28 melanoma
HCC-2998 colon = tested on: HCC-2998 colon
K-562 leukemia = tested on: K-562 leukemia
SF-295 CNS = tested on: SF-295 CNS
SK-MEL-5 melanoma = tested on: SK-MEL-5 melanoma
NCI-H23 lung = tested on: NCI-H23 lung
CCRF-CEM leukemia = tested on: CCRF-CEM leukemia
MCF7 breast = tested on: MCF7 breast
T-47D breast = tested on: T-47D breast
HCT-15 colon = tested on: HCT-15 colon
KM12 colon = tested on: KM12 colon
TK-10 renal = tested on: TK-10 renal
MOLT-4 leukemia = tested on: MOLT-4 leukemia
NCI-H460 lung = tested on: NCI-H460 lung
HT29 colon = tested on: HT29 colon
HOP-92 NSCLC = tested on: HOP-92 NSCLC
PC-3 prostate = tested on: PC-3 prostate
SR leukemia = tested on: SR leukemia
HL-60(TB) leukemia = tested on: HL-60(TB) leukemia
HOP-62 NSCLC = tested on: HOP-62 NSCLC
SNB-19 CNS = tested on: SNB-19 CNS

Measured: TGI

COc1cc(O)c2c(=O)cc(C3(OC(C)=O)C=CC(OC4OC(CO)C(O)C(O)C4O)C=C3)oc2c1 (configuration not stated)
> 100 µM: all assays above
